Test: Partition coefficient water/toluene
Format: physicochemical

O=S1(=O)CCCO1 [1,3-propane sultone]
partition coefficient for water/toluene: 1.4

From patent US7253306B2, “Pharmaceutical drug candidates and methods for preparation thereof” (Neurochem (International) Limited, priority 2003, dated 2007)
